Converted amounts (≈) assume the structure as drawn.

Assay [1] concerns S. aureus quality control strain 43300 (ATCC). As to the kind of experiment: microbe, parasite or virus in culture. In kind it is cell-based. The following applies: Staphylococcus aureus, ATCC43300|MRSA, 18 h, read-out: MIC wild-type S.aureus.
For assay [2], the system named is lab generated F98Y mutant strain. Put plainly: Minimum inhibitory concentration, micro-dilution broth assay, F98Y mutant strain. It counts as cell-based, S. aureus. The following applies: Staphylococcus aureus, 18 h, read-out: MIC Sa(F98Y). Background: Dilution methods test growth across graded concentrations, often in twofold steps.

As for `COc1cc(Cc2cnc(N)nc2N)cc(OC)c1OC` [TMP, trimethoprim], the figures for the MIC in assay [1] and in assay [2] were 0.312 µg/mL (≈ 1.08 µM) and 10 µg/mL (≈ 34.4 µM), respectively.
